From ChEMBL document CHEMBL1287715, “Discovery of N-benzyl-N'-(4-pipyridinyl)urea CCR5 antagonists as anti-HIV-1 agents (I): optimization of the amine portion” (Bioorg Med Chem Lett, 2010)

Key:
[1] = Cytotoxicity against peripheral blood lymphocyte cells upto 1 uM by celltiter glo assay; assay type: cell-based; settings: human
HOS = test: Cytotoxicity against HOS cells upto 1 uM by celltiter glo assay; assay type: cell-based; settings: human

Compound	Activity [1]	Activity (HOS)
C=CCN(C(=O)OCc1ccc(OC(F)(F)F)cc1)C1CCN(CCC2(c3cccc(F)c3)CCN(C(=O)c3cc(S(=O)(=O)NC(C)(C)C)c(F)cc3Cl)CC2)CC1	Non-toxic	Non-toxic
C=CCN(C(=O)OCc1ccc(C#N)cc1)C1CCN(CCC2(c3cccc(F)c3)CCN(C(=O)c3cc(S(=O)(=O)NC(C)(C)C)c(F)cc3Cl)CC2)CC1	Non-toxic	Non-toxic
C=CCN(C(=O)Cc1ccc(OC(F)(F)F)cc1)C1CCN(CCC2(c3cccc(F)c3)CCN(C(=O)c3cc(S(=O)(=O)NC(C)(C)C)c(F)cc3Cl)CC2)CC1	Non-toxic	Non-toxic
C=CCN(C(=O)OCc1ccc(S(C)(=O)=O)cc1)C1CCN(CCC2(c3cccc(F)c3)CCN(C(=O)c3cc(S(=O)(=O)NC(C)(C)C)c(F)cc3Cl)CC2)CC1	Non-toxic	Non-toxic
C=CCN(C(=O)NCc1ccc(F)cc1)C1CCN(CCC2(c3cccc(F)c3)CCN(C(=O)c3cc(S(=O)(=O)NC(C)(C)C)c(F)cc3Cl)CC2)CC1	Non-toxic	Non-toxic
C=CCN(C(=O)Cc1ccc(F)cc1)C1CCN(CCC2(c3cccc(F)c3)CCN(C(=O)c3cc(S(=O)(=O)NC(C)(C)C)c(F)cc3Cl)CC2)CC1	Non-toxic	Non-toxic
C=CCN(C(=O)Cc1ccc(C(N)=O)cc1)C1CCN(CCC2(c3cccc(F)c3)CCN(C(=O)c3cc(S(=O)(=O)NC(C)(C)C)c(F)cc3Cl)CC2)CC1	Non-toxic	Non-toxic
C=CCN(C(=O)Cc1ccc(S(C)(=O)=O)cc1)C1CCN(CCC2(c3cccc(F)c3)CCN(C(=O)c3cc(S(=O)(=O)NC(C)(C)C)c(F)cc3Cl)CC2)CC1	Non-toxic	Non-toxic
C=CCN(C(=O)Nc1ccc(C#N)cc1)C1CCN(CCC2(c3cccc(F)c3)CCN(C(=O)c3cc(S(=O)(=O)NC(C)(C)C)c(F)cc3Cl)CC2)CC1	Non-toxic	Non-toxic
C=CCN(C(=O)OCc1ccc(C(=O)OC)cc1)C1CCN(CCC2(c3cccc(F)c3)CCN(C(=O)c3cc(S(=O)(=O)NC(C)(C)C)c(F)cc3Cl)CC2)CC1	Non-toxic	Non-toxic
C=CCN(C(=O)NCc1ccc(C#N)cc1)C1CCN(CCC2(c3cccc(F)c3)CCN(C(=O)c3cc(S(=O)(=O)NC(C)(C)C)c(F)cc3Cl)CC2)CC1	Non-toxic	Non-toxic
C=CCN(C(=O)Nc1ccc(C(F)(F)F)cc1)C1CCN(CCC2(c3cccc(F)c3)CCN(C(=O)c3cc(S(=O)(=O)NC(C)(C)C)c(F)cc3Cl)CC2)CC1	Non-toxic	Non-toxic
C=CCN(C(=O)Cc1ccc(C(F)(F)F)cc1)C1CCN(CCC2(c3cccc(F)c3)CCN(C(=O)c3cc(S(=O)(=O)NC(C)(C)C)c(F)cc3Cl)CC2)CC1	Non-toxic	Non-toxic
C=CCN(C(=O)Nc1ccc(OC(C)=O)cc1)C1CCN(CCC2(c3cccc(F)c3)CCN(C(=O)c3cc(S(=O)(=O)NC(C)(C)C)c(F)cc3Cl)CC2)CC1	Non-toxic	Non-toxic
C=CCN(C(=O)OCc1ccc(C(F)(F)F)cc1)C1CCN(CCC2(c3cccc(F)c3)CCN(C(=O)c3cc(S(=O)(=O)NC(C)(C)C)c(F)cc3Cl)CC2)CC1	Non-toxic	Non-toxic
C=CCN(C(=O)NCc1ccc(C(F)(F)F)cc1)C1CCN(CCC2(c3cccc(F)c3)CCN(C(=O)c3cc(S(=O)(=O)NC(C)(C)C)c(F)cc3Cl)CC2)CC1	Non-toxic	Non-toxic
C=CCN(C(=O)OCc1ccc(F)cc1)C1CCN(CCC2(c3cccc(F)c3)CCN(C(=O)c3cc(S(=O)(=O)NC(C)(C)C)c(F)cc3Cl)CC2)CC1	Non-toxic	Non-toxic
C=CCN(C(=O)Nc1ccc(S(C)(=O)=O)cc1)C1CCN(CCC2(c3cccc(F)c3)CCN(C(=O)c3cc(S(=O)(=O)NC(C)(C)C)c(F)cc3Cl)CC2)CC1	Non-toxic	Non-toxic
C=CCN(C(=O)NCc1ccc(C(=O)OC)cc1)C1CCN(CCC2(c3cccc(F)c3)CCN(C(=O)c3cc(S(=O)(=O)NC(C)(C)C)c(F)cc3Cl)CC2)CC1	Non-toxic	Non-toxic
C=CCN(C(=O)Nc1ccc(F)cc1)C1CCN(CCC2(c3cccc(F)c3)CCN(C(=O)c3cc(S(=O)(=O)NC(C)(C)C)c(F)cc3Cl)CC2)CC1	Non-toxic	Non-toxic
C=CCN(C(=O)NCc1ccc(C(N)=O)cc1)C1CCN(CCC2(c3cccc(F)c3)CCN(C(=O)c3cc(S(=O)(=O)NC(C)(C)C)c(F)cc3Cl)CC2)CC1	Non-toxic	Non-toxic
